ChEMBL document CHEMBL5500377, “Design, synthesis and molecular modeling of novel D-ring substituted steroidal 4,5-dihydropyrazole thiazolinone derivatives as anti-inflammatory agents by inhibition of COX-2/iNOS production and down-regulation of NF-κB/MAPKs in LPS-induced RAW264.7 macrophage cells” (Eur J Med Chem, 2024)
Calls of active or inactive are those of the source. The calls are words filed in the database; no cut-off is given here.

Legend:
RAW264.7 [1] = assay: Anti-inflammatory activity against mouse RAW264.7 cells assessed as inhibition of LPS-induced NO production at 5 uM measured after 24 hrs incubation by Griess assay relative to control; format: functional
[2] = Cytotoxicity against mouse RAW264.7 cells assessed as cell viability at 5 uM measured after 24 hrs incubation by MTT assay relative to control; format: toxicity, cell-based; details: read-out: Activity
RAW264.7 [3] = assay: Anti-inflammatory activity against mouse RAW264.7 cells assessed as inhibition of LPS-induced NO production measured after 24 hrs incubation by Griess assay; format: functional, cell-based; details: RAW264.7, 24 h
RAW264.7 [4] = assay: Anti-inflammatory activity against mouse RAW264.7 cells assessed as inhibition of LPS-induced TNFalpha level pretreated for 1 hr followed by induced with LPS measured after 24 hrs by ELISA; format: functional, cell-based; details: dose 2.5-20 µM, time 25.0 hrs
RAW264.7 [5] = assay: Anti-inflammatory activity against mouse RAW264.7 cells assessed as inhibition of LPS-induced COX2 level pretreated for 1 hr followed by induced with LPS measured after 24 hrs by ELISA; format: functional, cell-based; details: dose 2.5-20 µM, time 25.0 hrs
RAW264.7 [6] = assay: Anti-inflammatory activity against mouse RAW264.7 cells assessed as inhibition of LPS-induced COX2 level at 2.5 uM pretreated for 1 hr followed by induced with LPS measured after 24 hrs by ELISA (reference value: 95.38 pg/ml); format: functional; details: time 25 hrs
RAW264.7 [7] = assay: Inhibition of LPS-induced translocation of NFkappaB p65 heterodimer into nucleus in mouse RAW264.7 cells at 2.5 to 10 uM pretreated for 1 hr followed by induced with LPS measured after 24 hrs by Western blot analysis; format: subcellular; details: dose 2.5-10 µM, time 25.0 hrs
RAW264.7 [8] = assay: Anti-inflammatory activity against mouse RAW264.7 cells assessed as inhibition of LPS-induced TNFalpha level at 10 uM pretreated for 1 hr followed by induced with LPS measured after 24 hrs by ELISA (reference value: 0.61 ng/ml); format: functional; details: time 25 hrs
RAW264.7 [9] = assay: Anti-inflammatory activity against mouse RAW264.7 cells assessed as inhibition of LPS-induced IL-6 mRNA level pretreated for 1 hr followed by induced with LPS measured after 6 hrs by quantitative RT-PCR analysis; format: functional, cell-based; details: dose 2.5-20 µM, time 7.0 hrs
RAW264.7 [10] = assay: Reduction in LPS-induced nuclear p65 level in mouse RAW264.7 cells at 2.5 to 10 uM pretreated for 1 hr followed by induced with LPS measured after 24 hrs by Western blot analysis; format: functional, cell-based; details: dose 2.5-10 µM, time 25.0 hrs
RAW264.7 [11] = assay: Anti-inflammatory activity against mouse RAW264.7 cells assessed as inhibition of LPS-induced TNFalpha mRNA level pretreated for 1 hr followed by induced with LPS measured after 6 hrs by quantitative RT-PCR analysis; format: functional, cell-based; details: dose 2.5-20 µM, time 7.0 hrs
RAW264.7 [12] = assay: Anti-inflammatory activity against mouse RAW264.7 cells assessed as inhibition of LPS-induced iNOS level pretreated for 1 hr followed by induced with LPS measured after 24 hrs by Western blot analysis; format: functional, cell-based; details: dose 2.5-10 µM, time 25.0 hrs
RAW264.7 [13] = assay: Anti-inflammatory activity against mouse RAW264.7 cells assessed as inhibition of LPS-induced COX2 level pretreated for 1 hr followed by induced with LPS measured after 24 hrs by Western blot analysis; format: functional, cell-based; details: dose 2.5-10 µM, time 25.0 hrs
[14] = molecular target: MAP kinase p38 (Mus musculus) (UniProt P47811+O08911+Q9WUI1+Q9Z1B7); assay: Inhibition of LPS-induced p38 MAPK phosphorylation in mouse RAW264.7 cells at 2.5 to 10 uM pretreated for 1 hr followed by induced with LPS measured after 24 hrs by Western blot analysis; format: cell-based; details: dose 2.5-10 µM, time 25.0 hrs
RAW264.7 [15] = assay: Anti-inflammatory activity against mouse RAW264.7 cells assessed as inhibition of LPS-induced COX2 level at 10 uM pretreated for 1 hr followed by induced with LPS measured after 24 hrs by ELISA (reference value: 95.38 pg/ml); format: functional; details: time 25 hrs
RAW264.7 [16] = assay: Inhibition of LPS-induced NFkappaB p65 translocation from cytosol to nucleus in mouse RAW264.7 cells at 2.5 to 10 uM pretreated for 1 hr followed by induced with LPS measured after 24 hrs by Western blot analysis; format: subcellular; details: dose 2.5-10 µM, time 25.0 hrs
RAW264.7 [17] = assay: Inhibition of JNK protein level in LPS-induced mouse RAW264.7 cells at 2.5 to 10 uM pretreated for 1 hr followed by induced with LPS measured after 24 hrs by Western blot analysis; format: functional, cell-based; details: dose 2.5-10 µM, time 25.0 hrs
RAW264.7 [18] = assay: Anti-inflammatory activity against mouse RAW264.7 cells assessed as inhibition of LPS-induced COX2 level at 5 uM pretreated for 1 hr followed by induced with LPS measured after 24 hrs by ELISA (reference value: 95.38 pg/ml); format: functional; details: time 25 hrs
RAW264.7 [19] = assay: Anti-inflammatory activity against mouse RAW264.7 cells assessed as inhibition of LPS-induced activation of NF-kappaB p65 by measuring phosphorylation pretreated for 1 hr followed by induced with LPS measured after 24 hrs by Western blot analysis; format: functional, cell-based; details: dose 2.5-10 µM, time 25.0 hrs
RAW264.7 [20] = assay: Anti-inflammatory activity against mouse RAW264.7 cells assessed as inhibition of LPS-induced TNFalpha level at 20 uM pretreated for 1 hr followed by induced with LPS measured after 24 hrs by ELISA (reference value: 0.61 ng/ml); format: functional; details: time 25 hrs
RAW264.7 [21] = assay: Inhibition of LPS-induced ERK phosphorylation in mouse RAW264.7 cells at 2.5 to 10 uM pretreated for 1 hr followed by induced with LPS measured after 24 hrs by Western blot analysis; format: cell-based; details: dose 2.5-10 µM, time 25.0 hrs
RAW264.7 [22] = assay: Anti-inflammatory activity against mouse RAW264.7 cells assessed as inhibition of LPS-induced TNFalpha level at 2.5 uM pretreated for 1 hr followed by induced with LPS measured after 24 hrs by ELISA (reference value: 0.61 ng/ml); format: functional; details: time 25 hrs
RAW264.7 [23] = assay: Anti-inflammatory activity against mouse RAW264.7 cells assessed as inhibition of LPS-induced COX2 mRNA level pretreated for 1 hr followed by induced with LPS measured after 6 hrs by quantitative RT-PCR analysis; format: functional, cell-based; details: dose 2.5-20 µM, time 7.0 hrs
[24] = molecular target: c-Jun N-terminal kinase (Mus musculus) (UniProt Q91Y86+Q9WTU6+Q61831); assay: Inhibition of LPS-induced JNK phosphorylation in mouse RAW264.7 cells at 2.5 to 10 uM pretreated for 1 hr followed by induced with LPS measured after 24 hrs by Western blot analysis; format: cell-based; details: dose 2.5-10 µM, time 25.0 hrs
Chain of c-Jun N-terminal kinase (Mus musculus) (Q61831 whole entry, looked up): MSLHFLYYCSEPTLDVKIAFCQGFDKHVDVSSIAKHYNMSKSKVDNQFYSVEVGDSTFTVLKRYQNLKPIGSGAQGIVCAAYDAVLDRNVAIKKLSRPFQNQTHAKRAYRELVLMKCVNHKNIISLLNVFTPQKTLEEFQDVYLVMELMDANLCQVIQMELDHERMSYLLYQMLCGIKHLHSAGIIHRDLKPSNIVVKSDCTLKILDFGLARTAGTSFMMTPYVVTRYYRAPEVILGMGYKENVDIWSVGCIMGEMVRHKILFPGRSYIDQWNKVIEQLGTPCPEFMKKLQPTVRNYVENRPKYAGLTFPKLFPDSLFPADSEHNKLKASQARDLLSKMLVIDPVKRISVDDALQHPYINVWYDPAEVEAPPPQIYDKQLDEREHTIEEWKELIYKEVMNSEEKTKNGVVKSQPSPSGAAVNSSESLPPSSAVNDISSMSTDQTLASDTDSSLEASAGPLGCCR
Chain of c-Jun N-terminal kinase (Mus musculus) (Q91Y86 whole entry, looked up): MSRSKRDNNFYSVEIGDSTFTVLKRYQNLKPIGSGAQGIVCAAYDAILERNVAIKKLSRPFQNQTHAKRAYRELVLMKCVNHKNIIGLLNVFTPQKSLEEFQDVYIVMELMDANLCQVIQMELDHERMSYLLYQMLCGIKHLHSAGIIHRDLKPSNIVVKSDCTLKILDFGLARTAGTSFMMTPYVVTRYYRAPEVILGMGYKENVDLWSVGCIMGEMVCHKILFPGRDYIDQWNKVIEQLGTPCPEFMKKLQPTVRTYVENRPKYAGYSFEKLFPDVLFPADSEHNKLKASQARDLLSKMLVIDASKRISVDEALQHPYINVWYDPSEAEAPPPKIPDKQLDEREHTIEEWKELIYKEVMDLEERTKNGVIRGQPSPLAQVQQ
Chain of c-Jun N-terminal kinase (Mus musculus) (Q9WTU6 whole entry, looked up): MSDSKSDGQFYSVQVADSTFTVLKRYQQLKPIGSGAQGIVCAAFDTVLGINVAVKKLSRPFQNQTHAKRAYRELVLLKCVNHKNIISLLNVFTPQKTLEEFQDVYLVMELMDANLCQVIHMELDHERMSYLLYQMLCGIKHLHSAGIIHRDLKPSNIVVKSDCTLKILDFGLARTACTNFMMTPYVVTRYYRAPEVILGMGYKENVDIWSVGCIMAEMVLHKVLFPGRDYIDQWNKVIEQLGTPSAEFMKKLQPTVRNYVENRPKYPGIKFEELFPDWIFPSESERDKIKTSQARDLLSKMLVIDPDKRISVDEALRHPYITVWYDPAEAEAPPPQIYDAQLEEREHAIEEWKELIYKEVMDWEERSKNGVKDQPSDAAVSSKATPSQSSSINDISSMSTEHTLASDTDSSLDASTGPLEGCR

BV-2 = assay: Anti-inflammatory activity against […] assessed as inhibition of LPS-induced NO production at 2.5 to 20 uM measured after 24 hrs incubation by Griess assay; format: functional, cell-based; details: dose 2.5-20 µM
RAW264.7 [25] = assay: Anti-inflammatory activity against mouse RAW264.7 cells assessed as inhibition of LPS-induced COX2 level at 20 uM pretreated for 1 hr followed by induced with LPS measured after 24 hrs by ELISA (reference value: 95.38 pg/ml); format: functional; details: time 25 hrs
RAW264.7 [26] = assay: Inhibition of ERK protein level in LPS-induced mouse RAW264.7 cells at 2.5 to 10 uM pretreated for 1 hr followed by induced with LPS measured after 24 hrs by Western blot analysis; format: functional, cell-based; details: dose 2.5-10 µM, time 25.0 hrs
RAW264.7 [27] = assay: Anti-inflammatory activity against mouse RAW264.7 cells assessed as inhibition of LPS-induced iNOS mRNA level pretreated for 1 hr followed by induced with LPS measured after 6 hrs by quantitative RT-PCR analysis; format: functional, cell-based; details: dose 2.5-20 µM, time 7.0 hrs
RAW264.7 [28] = assay: Inhibition of p38 MAPK protein level in LPS-induced mouse RAW264.7 cells at 2.5 to 10 uM pretreated for 1 hr followed by induced with LPS measured after 24 hrs by Western blot analysis; format: functional, cell-based; details: dose 2.5-10 µM, time 25.0 hrs
RAW264.7 [29] = assay: Anti-inflammatory activity against mouse RAW264.7 cells assessed as inhibition of LPS-induced TNFalpha level at 5 uM pretreated for 1 hr followed by induced with LPS measured after 24 hrs by ELISA (reference value: 0.61 ng/ml); format: functional; details: time 25 hrs

C[C@]12CC[C@H]3[C@@H](CC=C4C[C@@H](O)CC[C@@]43C)[C@@H]1CC[C@@H]2C1=NN(C2=NC(=O)CS2)C(c2ccc(Cl)cc2)C1 (some centres undefined)
inhibition at 5 µM (RAW264.7 [1]): 46.3%
viability at 24 h, 5 µM [2]: 85.1%
IC50 (RAW264.7 [3]): 4.07 µM

CCOc1ccc(C2CC([C@H]3CC[C@H]4[C@@H]5CC=C6C[C@@H](O)CC[C@]6(C)[C@H]5CC[C@]34C)=NN2C2=NC(=O)CS2)cc1 (some centres undefined)
inhibition at 5 µM (RAW264.7 [1]): 47.8%
viability at 24 h, 5 µM [2]: 87.7%
IC50 (RAW264.7 [3]): 2.36 µM
inhibition (RAW264.7 [4]): Dose-Dependent Effect
inhibition (RAW264.7 [5]): Dose-Dependent Effect

C[C@]12CC[C@H]3[C@@H](CC=C4C[C@@H](O)CC[C@@]43C)[C@@H]1CC[C@@H]2C1=NN(C2=NC(=O)CS2)C(c2cccc(Cl)c2)C1 (some centres undefined)
inhibition at 5 µM (RAW264.7 [1]): 50.7%
viability at 24 h, 5 µM [2]: 73.3%
IC50 (RAW264.7 [3]): 5.14 µM

COc1ccc(C2CC([C@H]3CC[C@H]4[C@@H]5CC=C6C[C@@H](O)CC[C@]6(C)[C@H]5CC[C@]34C)=NN2C2=NC(=O)CS2)cc1 (some centres undefined)
inhibition at 5 µM (RAW264.7 [1]): 30.7%
viability at 24 h, 5 µM [2]: 95.9%

C[C@]12CC[C@H]3[C@@H](CC=C4C[C@@H](O)CC[C@@]43C)[C@@H]1CC[C@@H]2C1=NN(C2=NC(=O)CS2)C(c2ccccc2F)C1 (some centres undefined)
inhibition at 5 µM (RAW264.7 [1]): 46.8%
viability at 24 h, 5 µM [2]: 86.4%
IC50 (RAW264.7 [3]): 5.41 µM

C[C@]12CC[C@H]3[C@@H](CC=C4C[C@@H](O)CC[C@@]43C)[C@@H]1CC[C@@H]2C1=NN(C2=NC(=O)CS2)C(c2ccc(F)cc2)C1 (some centres undefined)
inhibition at 5 µM (RAW264.7 [1]): 44.7%
viability at 24 h, 5 µM [2]: 90.9%
IC50 (RAW264.7 [3]): 4.24 µM

Cc1cccc(C2CC([C@H]3CC[C@H]4[C@@H]5CC=C6C[C@@H](O)CC[C@]6(C)[C@H]5CC[C@]34C)=NN2C2=NC(=O)CS2)c1 (some centres undefined)
inhibition at 5 µM (RAW264.7 [1]): 51.9%
viability at 24 h, 5 µM [2]: 75.9%
IC50 (RAW264.7 [3]): 2.9 µM

C[C@]12CC[C@H]3[C@@H](CC=C4C[C@@H](O)CC[C@@]43C)[C@@H]1CC[C@@H]2C1=NN(C2=NC(=O)CS2)C(c2ccccc2OCc2ccccc2)C1 (some centres undefined)
inhibition at 5 µM (RAW264.7 [1]): 48.2%
viability at 24 h, 5 µM [2]: 69%

C[C@]12CC[C@H]3[C@@H](CC=C4C[C@@H](O)CC[C@@]43C)[C@@H]1CC[C@@H]2C1=NN(C2=NC(=O)CS2)C(c2cccc(F)c2)C1 (some centres undefined)
Activity (RAW264.7 [6]): 0.0824 ng/mL
inhibition (RAW264.7 [7]): Active
Activity (RAW264.7 [8]): 0.33 ng/mL
inhibition (RAW264.7 [9]): Dose-Dependent Effect
inhibition (RAW264.7 [10]): Active
inhibition (RAW264.7 [11]): Dose-Dependent Effect
inhibition (RAW264.7 [12]): Dose-Dependent Effect
inhibition (RAW264.7 [13]): Dose-Dependent Effect
inhibition [14]: Active
Activity (RAW264.7 [15]): 0.0428 ng/mL
inhibition at 5 µM (RAW264.7 [1]): 45.4%
inhibition (RAW264.7 [16]): Active
Activity (RAW264.7 [17]): inactive
Activity (RAW264.7 [18]): 0.0624 ng/mL
inhibition (RAW264.7 [19]): Dose-Dependent Effect
viability at 24 h, 5 µM [2]: 97.4%
IC50 (RAW264.7 [3]): 2.34 µM
Activity (RAW264.7 [20]): 0.3 ng/mL
inhibition (RAW264.7 [21]): Active
inhibition (RAW264.7 [4]): Dose-Dependent Effect
Activity (RAW264.7 [22]): 0.51 ng/mL
inhibition (RAW264.7 [23]): Dose-Dependent Effect
inhibition [24]: Active
inhibition (BV-2): Active
Activity (RAW264.7 [25]): 0.0378 ng/mL
inhibition (RAW264.7 [26]): inactive
inhibition (RAW264.7 [27]): Dose-Dependent Effect
inhibition (RAW264.7 [5]): Dose-Dependent Effect
Activity (RAW264.7 [28]): inactive
Activity (RAW264.7 [29]): 0.42 ng/mL
